Measured values taken from publication PMC11212260, “Next-generation neuropeptide Y receptor small-molecule agonists inhibit mosquito-biting behavior” (Parasites & Vectors, 2024).
Where “and” joins values, the source holds several entries; their conditions need not be identical. Equal values may be shown once. Read-outs that look alike come from different tables or passages of the source.

How the values were obtained:
[1] = biological target: Ae. aegypti NPYLR7 (Aedes aegypti, UniProt U5N1H5); test: In vitro calcium (GCaMP6s) FLIPR assay in HEK293T cells transfected with NPYLR7; assay type: cell-based; settings: for in vitro potency (in words): relative to reference compound TDI-012631; for activation at 100 µM: single replicate of the dose-response curve
Description: The in vitro screening assay was adapted from, and carried out at HD Biosciences (HDB, Shanghai) as follows: HEK293T (Thermo Fisher Scientific) cells were grown in Dulbecco’s modified Eagle medium (DMEM) (high glucose, with glutamine), 10% fetal bovine serum, 1% penicillin–streptomycin (Pen/Strep), seeded in a 75 cm^2 flask, and incubated at 37 °C and 5% CO2. Cells were transiently transfected with 1 μg of each plasmid expressing GCaMP6s (Addgene […]) (Chen et al., 2013), mouse Gqα15 (Addgene #40753) (Offermanns and Simon, 1995) and Ae. aegypti NPYLR7 (Addgene #52392) (Duvall et al. 2019) using Lipofectamine 2000 (Invitrogen) in 4 ml of Opti-MEM (Invitrogen). This mixture was added to a plate after 20 min and incubated for 6–8 h. Cells were then trypsinized, resuspended in phenol-free media, and plated in a 384-well plate (Greiner Bio-One) at a density of 20,000 cells per 40 μl, and incubated overnight (37 °C, 5% CO2). Cells were imaged directly in phenol-free media. Plates were loaded into a Molecular Devices fluorescence imaging plate reader (FLIPR) with an excitation wavelength of 470–495 nm and an emitted wavelength of 515–575 nm. Plates were imaged every second for 5 min. After 30 s of baseline fluorescence recording, 10 μl of the test compound in reading buffer [Hank’s Balanced Salt Solution (Gibco) + 20 mM HEPES (Sigma-Aldrich)] was added. Concentrations tested ranged from 0 to 100 μM. Data were collected in raw fluorescence units (RFU).
Each test plate included replicates of 10 μM FMRFa3 (H‐Ala‐Gly‐Gln‐Gly‐Phe‐Met‐Arg‐Phe‐NH2), an Ae. aegypti neuropeptide agonist of NPYLR7 used to calculate the hundred percent effect (HPE). The zero percent effect (ZPE) control was calculated as a response to buffer alone. The Z′ factor was calculated for each plate by Z^′=1-3σHPE+3σZPE/|μHPE-μZPE| . Plates with Z′ < 0.5 were excluded from analysis. Raw fluorescence units (RFU) were converted to percent effect relative to the average of the ZPE and HPE. Percent effect = (sample luminescence − average ZPE)/(average HPE − average ZPE)×100. […] Each replicate was plotted as percent effect versus log[concentration], and replicates with maximal responses between 20 and 250% were used for EC50 calculations. Relative EC50 was calculated using an [Agonist] versus response–variable slope four-parameter model where Y=Bottom+(X^Hillslope)∗(Top-Bottom)/(X^HillSlope+EC50^HillSlope) . For compounds with multiple replicates, the relative EC50 of each replicate was averaged.

[2] = test system: Aedes aegypti (Orlando strain) females; test: Glytube feeding: females feeding to repletion and weight per female (meal palatability); assay type: in vivo; settings: Supplemental Figure 1 Panel A; compounds of Fig 3; individual replicate values
Description: (§1) Groups of 60–150 females were placed in bucket cages with a diameter of 21.6 cm and height of 16.5 cm (VWR) and fasted with access to water for 24 h prior to feeding. Meals were delivered to females via Glytube membrane feeders as described previously. Meals consisted of 1.5 ml sheep blood (HemoStat Laboratories), saline (400 mM NaHCO3 + dih2O), or saline and test compound. Lyophilized compounds were stored at room temperature until use. High-concentration stocks (30 mM in 100% dimethyl sulfoxide [DMSO]) (Sigma-Aldrich) were stored at −20 °C and diluted in saline immediately prior to feeding. Once prepared, meals and glycerol heating elements were warmed in a 42 °C water bath for 15 min to provide warmth to attract mosquitos to feed. ATP (1 mM final concentration) and test compounds (1 μM final concentration) were added prior to placing the meal on top of the mesh on the cage containing female mosquitos. Females were allowed 15–20 min to feed to repletion. Abdominal engorgement was scored by eye and confirmed by weighing females to ensure full feeding (Data S1). […] Females were returned to their original cage with a diH2O wick for 48 h prior to behavioral testing. The lethality of each compound was measured by counting the number of dead females in each cage 24 h post-meal.
Supplementary file 13071_2024_6347_MOESM1_ESM.png: Supplementary Material 1: Figure 1. […] (A) Percent of females feeding to repletion and (B) weight per female after feeding on the indicated meal used for testing in Miniport olfactometer experiments in Figure 3B. (C) Percent of females feeding to repletion and (D) weight per female after feeding on the indicated meal used for testing in live host assays in Figure 4. Data are shown as mean with standard deviation. n = 2–22 replicate cages, 60–150 females/cage. Females were weighed in groups of five to ensure reliable readings. Kruskal–Wallis with Dunn’s multiple comparisons to saline-fed group, ns P > 0.01, * P < 0.01, *** P < 0.0001. (PNG 321 KB)

[3] = test system: Aedes aegypti (Orlando strain) females; test: Host-seeking screening assay (miniport olfactometer); assay type: in vivo; settings: for Attraction (relative to saline): fed 1 μM in saline, tested 48 h post-meal, per-compound value of Fig. 3C
Description: as §1
Miniport olfactometers were fabricated in-house as described previously. Information regarding design, construction, and use can be found at https://github.com/VosshallLab/Miniport-Construction. Miniport canisters consisted of a 6″ × 3″ × 3″ acrylic tube with a mesh screen to allow for air flow. Groups of 10–20 females were loaded into canisters 24 h post-meal. Females were left in canisters overnight to acclimate with two cotton balls soaked in diH20 to prevent desiccation. Behavior trials began 48 h post-meal. Canisters were randomly assigned to attraction traps 1–4 and given 5 min to acclimate. The stimulus end of the trap was connected to a flowmeter that supplied 5% CO2 at a rate of 30 ml/min. Thirty seconds of CO2 flow was supplied to activate females prior to opening the sliding door. Once opened, the sliding door gave females access to the attraction trap baited with a human-scented nylon stocking previously worn by the same experimenter for 8–10 h to collect body odor and stored in a plastic bag at −20 °C until use. After 5 min, the sliding door was closed and attraction was scored as mosquitoes in the attraction trap/total number of mosquitoes. For each experiment data were normalized to the matched average saline attraction from the same experiment (% attracted/average saline attraction). Any dead mosquitoes were excluded from the analysis. Non-fed females and blood-fed females served as environmental control groups while the saline-fed females served as the vehicle control each day. If non-fed or saline-fed females were less than 50% attracted or if blood-fed females were more than 20% attracted behavioral trials were halted and all data from that experimental day were discarded.

[4] = test system: Aedes aegypti (Orlando strain) females; test: Biting assay (mouse-in-cage); assay type: in vivo; set-up: key to Difference between medians: Actual (vs. saline) / Difference between medians: Hodges-Lehmann (vs. saline): differences in percent biting (blood-fed/total females, %); settings: for Difference between medians: Actual (vs. saline) / Difference between medians: Hodges-Lehmann (vs. saline) / Median (percent freshly blood-fed) / Significantly different (P < 0.05)? vs. saline: fed 1 μM; for Percentage of females that freshly blood-fed on an anesthetized mouse: fed 1 μM 48 h prior, 15 min exposure, individual replicates; for effect on biting / blood-feeding from a live host (in words): fed at a dose of 1 μM
Description: as §1, with “ATP (1 mM final concentration) and test compounds (1 μM final concentration) were added prior to placing the meal on top of the mesh on the cage containing female mosquitos.” left out
This assay was modified from. Females were fed and scored as described above. Forty-eight hours post-meal, females were anesthetized in a 4 °C cold room and aspirated into a petri dish (Thermo Fisher Biosciences) with a randomly assigned color powder (Slice of the Moon; Chameleon Colors) to mark their treatment group. Females were then individually removed from the color powder, placed inside a cage measuring 91 cm × 61 cm × 61 cm (BugDorm), and allowed 2–4 h to recover. Each experiment consisted of a cage with 12–20 females in each treatment group including environmental (non-fed and blood-fed) and vehicle (saline-fed) control groups. The experiment began once an anesthetized mouse was introduced to the center of the cage, and females were allowed 15 min to blood-feed. The mouse was then removed, and the cage was placed at 4 °C to anesthetize females for collection. Females were aspirated into a large glass petri dish (Pyrex) and scored under a dissection microscope (Nikon SMZ1500) for powder color and blood-feeding status. Females were scored as blood-fed if fresh blood was present in the abdomen. Percent biting was calculated as females freshly blood-fed/total females in each respective treatment group.

[5] = relative EC50, percent effect relative to 10 μM FMRFa3, read-out: EC50
[6] = EC50 of the individual assay date/plate (assay date), read-out: EC50
[7] = Figure 1E Summary, third list (n = 39), read-out: Reported Metric (Summary list)
[8] = HEK-293T, 11.1111 uM, single replicate, normalised response
[9] = HEK-293T, 33.3333 uM, single replicate, normalised response
[10] = summary EC50 per compound (mean over assay dates), the unit is taken from the neighbouring EC50 (uM) column, read-out: Reported Metric
[11] = Figure 1E Summary, second list (n = 48), read-out: Reported Metric (Summary list)
[12] = sheet Figure 3C, unit inferred, read-out: EC50

Ae. aegypti NPYLR7, sequence (U5N1H5 entry or part of it): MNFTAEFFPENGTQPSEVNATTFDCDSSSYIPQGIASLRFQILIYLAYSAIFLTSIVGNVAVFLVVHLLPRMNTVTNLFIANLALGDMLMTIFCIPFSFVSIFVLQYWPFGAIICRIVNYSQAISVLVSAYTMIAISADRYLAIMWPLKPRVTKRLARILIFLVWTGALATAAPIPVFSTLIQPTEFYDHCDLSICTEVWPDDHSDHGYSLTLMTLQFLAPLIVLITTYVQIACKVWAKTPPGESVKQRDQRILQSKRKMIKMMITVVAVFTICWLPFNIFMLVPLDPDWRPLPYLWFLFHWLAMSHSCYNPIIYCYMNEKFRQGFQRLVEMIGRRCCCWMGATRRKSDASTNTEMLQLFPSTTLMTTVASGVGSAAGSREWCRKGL

| Structure (SMILES) | EC50 [1, 5] | in vitro potency (in words) [1] | % feeding (females feeding to repletion) [2] | Attraction (relative to saline) [3] | EC50 [1, 6] | EC50 [1, 7] | activation at 11.1111 µM [1, 8] | activation at 33.3333 µM [1, 9] | activation at 100 µM ([1]; HEK-293T, normalised response) | EC50 [1, 10] | Difference between medians: Actual (vs. saline) [4] | Difference between medians: Hodges-Lehmann (vs. saline) [4] | Median (percent freshly blood-fed) [4] | Significantly different (P < 0.05)? vs. saline [4] | effect on biting / blood-feeding from a live host (in words) [4] | EC50 [1, 11] | EC50 [1, 12] | further results |
| --- | --- | --- | --- | --- | --- | --- | --- | --- | --- | --- | --- | --- | --- | --- | --- | --- | --- | --- |
| COc1ccc2nc(N)nc(C)c2c1 [TDI-012610] | > 100 µM | loss of potency | 89.86% | 0.99 |  |  |  |  |  |  |  |  |  |  |  |  |  | Reported Metric (Summary list) ([1]; Figure 1E Summary, first list: low sensitivity or >100 (n = 41)): low sensitivity; EC50 (uM) ([1]; Figure 1E, EC50 of the single assay date/plate): low sensitivity; Reported Metric (EC50) ([1]; Figure 1E, metric reported per compound, repeated on every replicate line): low sensitivity; activation at 3.7037 µM ([1]; HEK-293T, compound 3.7037 uM, single replicate well, read-out: response at 3.7037): 9.1%; activation at 11.1111 µM ([1]; HEK-293T, compound 11.1111 uM, single replicate well, read-out: response at 11.1111): 4.96%; activation at 33.3333 µM ([1]; HEK-293T, compound 33.3333 uM, single replicate well, read-out: response at 33.3333): 1.85% |
| Cc1nc(NC(=N)N)nc2cc(OCc3ccc(OC(F)F)cc3)ccc12 [TDI-014170] | 1.63 µM | high in vitro potency |  | 0.91 | 1.63 µM | 1.63 µM | 80.9% | 99.8% | 128% | 1.63 µM | -19.9 | -11 | 59.60, n=9% | No | nor did it significantly reduce biting |  |  | Percentage of females that freshly blood-fed on an anesthetized mouse ([4]; listed as TDI-04170): 44% and 57% and 85% and 74% and 53% and 82% and 55% and 62%; effect on host-seeking (in words) ([3]; fed at a dose of 1 μM): did not reduce host-seeking |
| CCOc1ccc(COc2ccc3c(C)nc(NC(=N)N)nc3c2)cc1 [TDI-014176] | 6.35 µM |  | 58.02% | 0.74 | 6.35 µM |  | 88% | 131% | 133% | 6.35 µM |  |  |  |  |  | 6.35 µM | 6.35 µM | activation at 0.0017 µM ([1]; HEK-293T, 0.0017 uM, single replicate, normalised response): 4.15%; activation at 0.0051 µM ([1]; HEK-293T, 0.0051 uM, single replicate, normalised response): 3.37% |
| CNc1nc(NC(=N)N)nc2cc(OCC3CCOCC3)ccc12 [TDI-014188] | 0.0602 µM | significantly improved in vitro potency |  | 0.895 |  |  |  |  |  |  | -21.9 | -21 | 50.00, n=11% | Yes | reduced biting behavior |  |  | Percentage of females that freshly blood-fed on an anesthetized mouse ([4]; listed as TDI-04188): 17% and 78% and 72% and 33% and 47% and 67% and 53% |
| CNc1nc(NC(=N)N)nc2cc(OCc3ccc(OC)cc3)ccc12 [TDI-014190] | 0.0181 µM |  |  | 0.805 | 0.0181 µM | 0.0181 µM | 69.9% | 92.1% | 91.9% | 0.0181 µM |  |  |  |  |  |  | 0.0181 µM | activation at 0.1372 µM ([1]; HEK-293T, 0.1372 uM, single replicate, normalised response): 46.8%; activation at 1.2346 µM ([1]; HEK-293T, 1.2346 uM, single replicate, normalised response): 77.5% |
| Cc1nc(NC(=N)N)nc2cc(OCC3CCCCO3)ccc12 (stereo not drawn) [TDI-014192] | 5.76 µM |  |  | 1.035 | 5.76 µM |  | 55.1% |  | 67.4% | 5.76 µM |  |  |  |  |  | 5.76 µM | 5.76 µM |  |
